Biological target: T1, soybean lipoxygenase (LOX) (Glycine max, UniProt P08170)
T1 construct: gene LOX1.1
T1 sequence (P08170 1-839): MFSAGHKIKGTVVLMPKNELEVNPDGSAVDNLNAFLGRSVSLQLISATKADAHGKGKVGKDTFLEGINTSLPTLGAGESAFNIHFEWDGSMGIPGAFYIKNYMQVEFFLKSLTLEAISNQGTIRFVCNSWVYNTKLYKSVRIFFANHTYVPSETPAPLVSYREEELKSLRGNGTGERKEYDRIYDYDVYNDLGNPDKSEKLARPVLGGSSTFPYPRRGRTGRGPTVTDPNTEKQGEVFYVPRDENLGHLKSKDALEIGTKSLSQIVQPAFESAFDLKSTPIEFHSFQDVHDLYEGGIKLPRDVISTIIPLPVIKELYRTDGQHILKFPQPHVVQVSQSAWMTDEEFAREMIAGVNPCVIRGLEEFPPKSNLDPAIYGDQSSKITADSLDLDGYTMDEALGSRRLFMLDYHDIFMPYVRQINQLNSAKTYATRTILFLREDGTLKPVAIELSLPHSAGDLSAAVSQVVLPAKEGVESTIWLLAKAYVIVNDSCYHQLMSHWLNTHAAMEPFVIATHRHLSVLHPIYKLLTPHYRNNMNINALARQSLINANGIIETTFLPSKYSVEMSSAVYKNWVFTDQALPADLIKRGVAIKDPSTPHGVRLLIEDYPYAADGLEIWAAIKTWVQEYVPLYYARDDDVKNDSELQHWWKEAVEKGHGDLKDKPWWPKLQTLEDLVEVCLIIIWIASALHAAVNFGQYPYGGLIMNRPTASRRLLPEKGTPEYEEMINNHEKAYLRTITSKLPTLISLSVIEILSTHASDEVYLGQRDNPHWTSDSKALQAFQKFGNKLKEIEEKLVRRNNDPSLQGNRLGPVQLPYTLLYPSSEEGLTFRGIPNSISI
Test: soybean lipoxygenase, linoleate oxidation at […] nm
Assay type: biochemical
Settings: read-out: LOX inhibition (IC50 [μM]/%)

IC50 [µM] | Structure (SMILES)
60 | C/[N+]([O-])=C/c1ccccc1/C=[N+](/C)[O-] [HBN7, (1Z,1′Z)-1,1′-(1,2-Phenylene)bis(N-methylmethanimineoxide)]
57.5 | CC(C)(C)/[N+]([O-])=C/c1ccccc1/C=[N+](\[O-])C(C)(C)C [HBN8, (1Z,1′Z)-1,1′-(1,2-Phenylene)bis(N-tert-butylmethanimineoxide)]
85 | [O-]/[N+](=C\c1ccccc1/C=[N+](\[O-])Cc1ccccc1)Cc1ccccc1 [HBN9, (1Z,1′Z)-1,1′-(1,2-Phenylene)bis(N-benzylmethanimineoxide)]

From PMC7447640, “Synthesis, antioxidant properties and neuroprotection of α-phenyl-tert-butylnitrone derived HomoBisNitrones in in vitro and in vivo ischemia models” (Scientific Reports, 2020)
